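Values below derive from 48-hour exposures of cells grown in 96-well plates, with endpoints linearly interpolated between the two concentrations bracketing the appropriate inhibition level. At the GI50, growth is halved.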 Calls of active or inactive are those of the source. Rule as the data show it: active = GI50 up to about 1.1 µM and inactive = higher.

Among the test systems are SF-539; EKVX; PC-3; SK-MEL-5; NCI-H23; RPMI-8226; SNB-75; Hs-578T; NCI-H460; SK-OV-3; ACHN; MDA-MB-435; CCRF-CEM; SK-MEL-2; Malme-3M; UACC-62; RXF 393.
Common to all, as to assay: growth of human tumour cells (NCI), 48 h

Consider `Cc1cc2c(cc1Cl)SC(NNC(=O)c1ccncc1)=NS2(=O)=O`, for which the GI50 with SF-539, with EKVX, in the assay with PC-3, in the assay with SK-MEL-5, in the assay on NCI-H23 and in the assay on RPMI-8226 was > 10 µM (inactive) throughout. In addition, the GI50 in the assay on SNB-75, with Hs-578T, in the assay on NCI-H460, with SK-OV-3, in the assay with ACHN and with MDA-MB-435 was > 10 µM (inactive) in each case. Besides, the GI50 in the assay on CCRF-CEM, in the assay with SK-MEL-2, in the assay with Malme-3M, in the assay with UACC-62 and in the assay on RXF 393 was > 10 µM (inactive) in each case.

In the case of `COc1cc(/C=C2\C[C@H]3[C@@H]4CC=C5C[C@@H](N6CCCC6)CC[C@]5(C)[C@H]4CC[C@]3(C)[C@H]2OC(C)=O)cc(OC)c1OC`, the GI50 is 14.3 µM (inactive) with EKVX; 14.2 µM (inactive) in the assay on PC-3; 15.1 µM (inactive) with SK-MEL-5; 15.2 µM (inactive) in the assay with NCI-H23; 5.27 µM (inactive) with RPMI-8226; 15.4 µM (inactive) in the assay with SNB-75. Also, the GI50 with Hs-578T was 17.8 µM (inactive); in the assay on SK-OV-3, 15.3 µM (inactive); in the assay with ACHN it was 18.9 µM (inactive); in the assay with MDA-MB-435 it was 12.9 µM (inactive); in the assay with CCRF-CEM, 12.9 µM (inactive); with SK-MEL-2, 17.7 µM (inactive). For the same compound, the GI50 in the assay with Malme-3M is 21.5 µM (inactive); in the assay on UACC-62, 17.5 µM (inactive); with RXF 393 it was 11.5 µM (inactive).

`CC(=O)c1c(SCCN2CCCC2)n(-c2ccccc2)c(=S)n(-c2ccccc2)c1=O`: the GI50 in the assay with SF-539 was 6.12 µM (inactive); with EKVX, 17 µM (inactive); with PC-3, 3.56 µM (inactive); in the assay with SK-MEL-5 it was 8.55 µM (inactive); with NCI-H23, 17.4 µM (inactive); in the assay on RPMI-8226 it was 1.51 µM (inactive). The GI50 is 14.6 µM (inactive) in the assay on SNB-75; 17.6 µM (inactive) with Hs-578T; 17.9 µM (inactive) with NCI-H460; 45.3 µM (inactive) in the assay on SK-OV-3; 1.72 µM (inactive) in the assay on ACHN; 5.9 µM (inactive) in the assay with MDA-MB-435. The GI50 was 1.7 µM (inactive) in the assay with CCRF-CEM; 21.6 µM (inactive) in the assay with SK-MEL-2; 3.85 µM (inactive) with Malme-3M; 6.93 µM (inactive) in the assay with UACC-62; 2.3 µM (inactive) in the assay with RXF 393.

As for `CC(C)=CCC/C(C)=C/CC/C(C)=C/CC/C(C)=C/CC/C(C)=C\CC/C(C)=C/CC/C(C)=C/CC/C(C)=C/Cc1cc(O)ccc1O`, the GI50 with SF-539 was 1.33 µM (inactive); in the assay with EKVX, 2.31 µM (inactive); in the assay with PC-3 it was 0.689 µM (active); with SK-MEL-5, 0.294 µM (active); with NCI-H23, 0.361 µM (active); in the assay with SNB-75, 3.41 µM (inactive). Besides, the GI50 with Hs-578T is 3.33 µM (inactive); in the assay on NCI-H460, 2.57 µM (inactive); in the assay with SK-OV-3, 4.06 µM (inactive); in the assay with ACHN, 4.75 µM (inactive); in the assay with MDA-MB-435, 0.39 µM (active); in the assay on CCRF-CEM, 0.955 µM (active). Further, the GI50 was 0.682 µM (active) with SK-MEL-2, 0.292 µM (active) with Malme-3M, 0.157 µM (active) in the assay on UACC-62 and 0.344 µM (active) in the assay with RXF 393.

Turning to `CC(C)(C)C(=O)C(C(=O)C(C)(C)C)C(=O)C(C)(C)C`, the GI50 in the assay on SF-539, in the assay on EKVX, in the assay with PC-3, in the assay with SK-MEL-5, with NCI-H23 and with RPMI-8226 was > 100 µM (inactive) throughout. The GI50 is 71 µM (inactive) in the assay on SNB-75; > 100 µM (inactive) in the assay on Hs-578T; > 100 µM (inactive) in the assay on NCI-H460; 43.5 µM (inactive) in the assay with SK-OV-3; > 100 µM (inactive) in the assay on ACHN; > 100 µM (inactive) in the assay on MDA-MB-435. Further, the GI50 in the assay with CCRF-CEM, in the assay with SK-MEL-2, in the assay on Malme-3M and in the assay with RXF 393 was > 100 µM (inactive) throughout.

For the compound `O=C(c1cccnc1)N1N=C(c2ccccc2)CC1(O)c1cc(F)c(Cl)cc1Cl` (configuration not stated), the GI50 is 15.4 µM (inactive) in the assay with SF-539; 21.8 µM (inactive) in the assay with EKVX; 20.5 µM (inactive) with PC-3; 13.9 µM (inactive) with SK-MEL-5; 27 µM (inactive) with NCI-H23; 18.2 µM (inactive) with RPMI-8226. The GI50 was 16.4 µM (inactive) with SNB-75; 27 µM (inactive) in the assay on Hs-578T; 18.6 µM (inactive) in the assay on NCI-H460; 23.7 µM (inactive) in the assay on SK-OV-3; 23.2 µM (inactive) with ACHN; 26.9 µM (inactive) in the assay with MDA-MB-435. The GI50 was 24.6 µM (inactive) with CCRF-CEM, 19.4 µM (inactive) in the assay on SK-MEL-2, 29.2 µM (inactive) with Malme-3M and 16.7 µM (inactive) in the assay with RXF 393.

Take `O=C(CSCC(=O)N/N=C/c1cccc(O)c1)N/N=C/c1cccc(O)c1`: the GI50 in the assay on SF-539, in the assay with EKVX, with PC-3, with SK-MEL-5, in the assay with NCI-H23 and in the assay with RPMI-8226 was > 100 µM (inactive) each time. Besides, the GI50 in the assay on SNB-75, in the assay with Hs-578T, in the assay with NCI-H460, with SK-OV-3, in the assay on ACHN and with MDA-MB-435 was > 100 µM (inactive) throughout. Further, the GI50 with SK-MEL-2, in the assay on Malme-3M, with UACC-62 and with RXF 393 was > 100 µM (inactive) in each case.

For the compound `C=C1CC[C@H](O)C(C)(C)[C@@H]1CC/C(C)=C/CC/C=C(\C)CC/C=C(\C)CCC=C(C)C`, the GI50 in the assay on SF-539 is > 100 µM (inactive); with EKVX, 97.9 µM (inactive); in the assay with PC-3 it was > 100 µM (inactive); in the assay with SK-MEL-5, 54 µM (inactive); in the assay with NCI-H23 it was 45.7 µM (inactive); in the assay with SNB-75 it was > 100 µM (inactive). Also, the GI50 in the assay with Hs-578T is > 100 µM (inactive); in the assay on NCI-H460, > 100 µM (inactive); with SK-OV-3, > 100 µM (inactive); in the assay with ACHN it was > 100 µM (inactive); in the assay with MDA-MB-435 it was > 100 µM (inactive); with CCRF-CEM it was 1.82 µM (inactive). In addition, the GI50 is 46.7 µM (inactive) with SK-MEL-2, > 100 µM (inactive) in the assay with Malme-3M, > 100 µM (inactive) in the assay with UACC-62 and 13.7 µM (inactive) in the assay with RXF 393.

On to `CN(CCCNC(=O)c1cn(C)c2c1ccc1cc(Cl)ccc12)CCCNC(=O)c1cn(C)c2c1ccc1cc(Cl)ccc12`, for which the GI50 in the assay with SF-539 was 1.99 µM (inactive); in the assay with EKVX, 2.33 µM (inactive); with PC-3 it was 1.78 µM (inactive); in the assay with SK-MEL-5, 4.99 µM (inactive); in the assay with NCI-H23, 3.91 µM (inactive); with SNB-75, 1.57 µM (inactive). The GI50 in the assay with Hs-578T is 1.83 µM (inactive); in the assay on NCI-H460, 1.56 µM (inactive); with SK-OV-3, 1.82 µM (inactive); in the assay with ACHN, 1.71 µM (inactive); with MDA-MB-435, 1.71 µM (inactive); with CCRF-CEM it was 1.23 µM (inactive). For the same compound, the GI50 was 1.69 µM (inactive) with SK-MEL-2, 2.52 µM (inactive) with Malme-3M, 1.84 µM (inactive) in the assay with UACC-62 and 1.3 µM (inactive) in the assay with RXF 393.

Regarding `Cc1ccc(Nc2nc(O)c3[nH]cnc3n2)cc1CO`, the GI50 in the assay with EKVX was 14.8 µM (inactive); in the assay on PC-3, 12.8 µM (inactive); in the assay on SK-MEL-5, 16.5 µM (inactive); in the assay on NCI-H23, 17.7 µM (inactive); in the assay on RPMI-8226, 10.7 µM (inactive); in the assay on SNB-75 it was 14.7 µM (inactive). Besides, the GI50 with Hs-578T is 21.2 µM (inactive); in the assay on NCI-H460 it was 16.5 µM (inactive); in the assay on SK-OV-3 it was 13.5 µM (inactive); with ACHN, 16 µM (inactive); in the assay with MDA-MB-435, 15.8 µM (inactive); in the assay with CCRF-CEM it was 16.1 µM (inactive). For the same compound, the GI50 in the assay on SK-MEL-2 is 16.6 µM (inactive); in the assay on Malme-3M, 16.5 µM (inactive); with UACC-62, 13 µM (inactive); in the assay with RXF 393, 16.3 µM (inactive).

`O=c1[nH]c(Nc2nc3ccccc3[nH]2)nc(O)c1-c1ccccc1`: the GI50 was > 100 µM (inactive) in the assay on SF-539; > 100 µM (inactive) with PC-3; > 100 µM (inactive) in the assay on SK-MEL-5; > 100 µM (inactive) in the assay with NCI-H23; > 100 µM (inactive) in the assay on SNB-75; 72.3 µM (inactive) in the assay with Hs-578T. Moreover, the GI50 with NCI-H460, with SK-OV-3, in the assay with ACHN, in the assay on MDA-MB-435, in the assay on CCRF-CEM and in the assay on SK-MEL-2 was > 100 µM (inactive) each time. Also, the GI50 in the assay on Malme-3M, in the assay with UACC-62 and with RXF 393 was > 100 µM (inactive) each time.

Turning to `c1csc(-c2ccc(-c3ccc(-c4cccs4)s3)s2)c1`, the GI50 with SF-539, with EKVX, in the assay on PC-3, in the assay with SK-MEL-5, with NCI-H23 and in the assay on RPMI-8226 was > 100 µM (inactive) throughout. Further, the GI50 in the assay on SNB-75, in the assay on Hs-578T, in the assay on NCI-H460, in the assay with SK-OV-3, in the assay with ACHN and in the assay with MDA-MB-435 was > 100 µM (inactive) throughout. The GI50 in the assay with SK-MEL-2, in the assay with Malme-3M, in the assay with UACC-62 and in the assay with RXF 393 was > 100 µM (inactive) throughout.

For the origin of these results see ChEMBL document CHEMBL1201862, “PubChem BioAssay data set” (2004).
